# Experimental data: the supplement of paper PMC10307832
# Key:
# Test in all cases: relative viability (nuclei count vs DMSO), 5 days (fraction); higher = more cells survive
# [1] = compound: O=C(C[C@H]1NCCC[C@@H]1O)Cn1cnc2cc(Br)c(Cl)cc2c1=O (racemic) [Halofuginone] + CC(=O)Nc1cccc(-n2c(=O)n(C3CC3)c(=O)c3c(Nc4ccc(I)cc4F)n(C)c(=O)c(C)c32)c1 [Trametinib] (partner 0.02 µM)
# Method in brief: (§1)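 Lung cancer cell lines, seeded in 1536-well plates, were treated the following day by pin tool with a single drug or with five library-drug doses (not always all listed) in √10 steps on top of a fixed anchor-drug dose. Cells were fixed and nuclei stained in one step after 5 days, and nuclei were counted. Relative viability is the nuclei count for treated wells divided by that for vehicle wells, reported as medians of duplicate plates.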
# Cediranib + Foretinib = compound: COc1cc2c(Oc3ccc4[nH]c(C)cc4c3F)ncnc2cc1OCCCN1CCCC1 [Cediranib] + COc1cc2c(Oc3ccc(NC(=O)C4(C(=O)Nc5ccc(F)cc5)CC4)cc3F)ccnc2cc1OCCCN1CCOCC1 [Foretinib] (partner 0.25 µM)
# Method in brief: as §1
# [2] = compound: O=C(C[C@H]1NCCC[C@@H]1O)Cn1cnc2cc(Br)c(Cl)cc2c1=O (racemic) [Halofuginone] + CC(=O)c1c(C)c2cnc(Nc3ccc(N4CCNCC4)cn3)nc2n(C2CCCC2)c1=O [Palbociclib] (partner 0.5 µM)
# Method in brief: as §1
# [3] = compound: O=C(C[C@H]1NCCC[C@@H]1O)Cn1cnc2cc(Br)c(Cl)cc2c1=O (racemic) [Halofuginone] + C[C@]1(O)C[C@@H](c2nc(-c3ccc4ccc(-c5ccccc5)nc4c3)c3c(N)nccn32)C1 [Linsitinib] (partner 1 µM)
# Method in brief: as §1
Cell Line,relative viability ([1]; first compound 0.001 µM),relative viability ([1]; first compound 0.003162 µM),relative viability ([1]; first compound 0.01 µM),relative viability ([1]; first compound 0.03162 µM),relative viability ([1]; first compound 0.1 µM),relative viability (Cediranib + Foretinib; first compound 0.04 µM),relative viability (Cediranib + Foretinib; first compound 0.1265 µM),relative viability (Cediranib + Foretinib; first compound 0.4 µM),relative viability (Cediranib + Foretinib; first compound 1.265 µM),relative viability (Cediranib + Foretinib; first compound 4 µM),relative viability ([2]; first compound 0.001 µM),relative viability ([2]; first compound 0.003162 µM),relative viability ([2]; first compound 0.01 µM),relative viability ([2]; first compound 0.03162 µM),relative viability ([2]; first compound 0.1 µM),relative viability ([3]; first compound 0.001 µM),relative viability ([3]; first compound 0.003162 µM),relative viability ([3]; first compound 0.01 µM),relative viability ([3]; first compound 0.03162 µM),relative viability ([3]; first compound 0.1 µM)
HCC-366,0.395,0.404,0.338,0.322,0.166,0.935,0.902,0.772,0.94,1.01,0.363,0.472,0.351,0.358,0.14,0.638,0.69,0.692,0.618,0.126
HCC-827,0.591,0.524,0.515,0.575,0.433,1.2,,0.986,1.05,1.03,0.485,0.459,0.491,0.56,0.478,0.968,0.983,0.978,1.02,0.892
HOP-62,0.419,0.407,0.383,0.411,0.235,1.3,1.15,1.1,1.15,1.22,0.435,0.427,0.426,0.375,0.227,1.1,1.07,1.09,0.95,0.302
IA-LM,,,,,,1.16,1.32,1.07,1.26,1.33,,,,,,0.735,0.78,0.547,0.775,0.434
LC-2-ad,0.897,0.988,0.936,0.917,0.701,1.12,0.581,0.883,1.04,0.891,0.504,0.505,0.456,0.478,0.411,0.843,0.796,0.763,0.818,0.264
LCLC-97TM1,0.241,0.192,0.187,0.185,0.173,0.969,0.919,0.946,0.921,0.967,0.3,0.194,0.257,0.239,0.219,0.209,0.189,0.187,0.179,0.163
LCLC-103H,0.659,0.682,0.666,0.661,0.658,0.819,0.964,0.686,0.823,0.832,0.492,0.491,0.462,0.467,0.523,1.12,1.48,1.04,1.09,1.01
LK-2,0.853,0.775,0.592,0.823,0.519,1.43,0.875,1.23,1.19,1.01,0.736,0.714,0.691,0.777,0.552,0.722,0.656,0.433,0.609,0.452
LOU-NH91,0.819,0.817,0.724,0.778,0.697,0.903,1.12,0.859,0.961,0.829,0.567,0.515,0.494,0.492,0.589,0.97,0.977,0.97,0.977,0.842
NCI-H522,0.734,0.753,0.791,0.777,0.633,,,,,,0.861,0.756,0.829,1.04,0.95,,,,,
NCI-H596,0.889,0.732,0.811,0.898,0.542,1.04,0.833,0.974,,0.926,,,,,,1.13,1.04,1.07,1.12,0.732
NCI-H1299,,,,,,1.1,1.05,1.13,1.1,1.15,,,,,,1.01,1.23,0.972,0.955,0.732
NCI-H1563,,,,,,0.976,1.09,0.908,0.958,0.936,,,,,,1.3,1.3,0.963,0.636,0.603
NCI-H1623,,,,,,0.974,0.59,0.793,0.861,0.805,,,,,,,,,,
NCI-H1648,0.46,0.449,0.582,0.495,0.497,,,,,,0.28,0.322,0.178,0.261,0.249,,,,,
NCI-H1650,0.656,0.696,0.55,0.57,0.216,1.07,1.36,1.14,1.08,0.873,0.265,0.303,0.323,0.323,0.173,,,,,
NCI-H1703,,,,,,0.468,0.37,0.247,0.33,0.337,,,,,,0.944,1.03,0.617,0.559,0.353
NCI-H1792,0.402,0.469,0.51,0.522,0.18,,,,,,0.613,0.704,0.666,0.662,0.585,0.602,0.501,0.642,0.569,0.523
NCI-H2170,0.856,0.852,0.954,0.948,0.868,1.02,0.987,0.931,1.01,1.12,0.382,0.392,0.358,0.401,0.373,,,,,
NCI-H2342,0.816,0.832,0.972,0.85,0.823,1.14,1.07,0.927,1.06,1.12,0.503,0.578,0.511,0.512,0.527,,,,,
SW 900,0.871,0.941,,1.03,0.534,0.535,0.877,0.878,0.98,1.18,0.626,0.483,,0.622,0.215,,,,,
